Reference: patent US20220072101A1, “HARNESSING INFLAMMATION TO TREAT NEURODEVELOPMENTAL DISORDERS” (President and Fellows of Harvard College, priority 2019, published 2022)
“Also recorded” adds a separate entry of the source.

How the values were obtained:
MIA offspring [1] = assay: Three-chamber social approach assay in PBS and MIA offspring; format: in vivo, mouse
Method: Adult male mice were assayed for sociability using a three-chamber social approach assay. The arena was constructed of white acrylic (50 cm×35 cm×30 cm). Wire cups (Spectrum Diversified®) were placed in the back left and right corner of the arena beneath water-filled 1 L bottles (Nalgene®). On Day 0, mice were habituated to the arena for 10 min. Immediately following habituation, mice were singly housed. On Day 1 (Pre), mice were placed in the center of the arena and allowed to freely explore. Following 10 min, mice were confined to the center of the arena. An inanimate object (rubber stopper) or a male conspecific were placed beneath the wire cups. Placement of the inanimate object and social target were alternated. Mice were then allowed to freely explore the arena for 10 min. Interaction time was defined as time spent in the areas circumscribing the wire cups (<2 cm). Sociability was defined as interaction time with the social target divided by total interaction time and expressed as a percentage. For experiments involving LPS injections, mice were injected with LPS ([…], i.p., L2630, Sigma) on Day 2 (Test), four hours prior to testing. […]
Adult male mice were implanted with cannula into S1DZ and allowed to recover for >2 weeks prior to behavioral experiments. On Day 1 (Pre) mice were assayed for sociability. On Day 2 (Test), mice were anesthetized briefly using isoflurane and either vehicle or IL-17a (50 ng/side in 1 μl at a rate of 180 nl/min, 7956-ML/CF, R&D®) was administered bilaterally into S1DZ through 250 μm-projecting injector tips (PlasticsOne®). Four hours after vehicle or IL-17a administration, mice were assayed for sociability. Cannula placements were verified using histology.
Adult male mice were assayed for sociability using a three-chamber social approach assay. The arena was constructed of white acrylic (50 cm×35 cm×30 cm). Wire cups (Spectrum Diversified®) were placed in the back left and right corner of the arena beneath water-filled 1 L bottles (Nalgene®). On day 0, mice were habituated to the arena for 10 min. Immediately following habituation, mice were singly housed. On day 1 (Pre), mice were placed in the center of the arena and allowed to freely explore. Following 10 min, mice were confined to the center of the arena. An inanimate object (rubber stopper) or a male conspecific were placed beneath the wire cups. Placement of the inanimate object and social target were alternated. Mice were then allowed to freely explore the arena for 10 min. Interaction time was defined as time spent in the areas circumscribing the wire cups (<2 cm). Sociability was defined as interaction time with the social target divided by total interaction time and expressed as a percentage. For experiments involving LPS injections, mice were injected with either saline (Veh) or LPS ([…], i.p., L2630, Sigma) on day 2 (Test), four hours prior to testing. For the experiment assaying sociability 72 hrs following LPS injection, mice used for 4 hr LPS sociability experiments were tested for sociability again at 72 hrs.
Adult male Vgat-Cre MIA offspring were bilaterally injected with virus encoding the inhibitory DREADD receptor fused to mCherry into the vLPO. Following >3 weeks of recovery, mice were assayed on the three-chamber social approach assay outlined above. Baseline sociability was assayed on day 1 (Pre). On day 2 and day 3, mice were injected with either Saline (Veh) or CNO (1.5 mg/kg i.p., BML-NS105, Enzo Life Sciences®), two hours prior to initiation of behavior. Injection order was counterbalanced. Following behavioral experiments, post-mortem histology was used to confirm mCherry expression within the vLPO. For experiments assaying the effect of CNO and LPS injection in Vgat-Cre PBS and MIA offspring that have not undergone surgery, baseline sociability was assessed on day 1. On day 2 and 3 mice received counterbalanced injections of CNO or vehicle. On day 4, mice were injected with LPS. […]

[2] = system: layer 2/3 pyramidal neurons in S1DZ; assay: Whole-cell patch clamp recordings in brain slices of Veh- or LPS-injected MIA offspring; format: in vivo, mouse; settings: S1DZ pyramidal neurons from LPS-injected MIA offspring
MIA offspring [3] = assay: Marble burying assay; format: in vivo, mouse; settings: four hours after LPS
Method: On day 1, mice were tested for their baseline marble burying phenotype. On day 2, four hours prior to beginning the marble burying assay, mice were treated with either LPS or vehicle. Marble burying assay was carried out as described previously^8. Mice were placed into testing arenas (arena size: 40 cm×20 cm×30 cm, bedding depth: 3 cm) each containing 20 glass marbles (laid out in four rows of five marbles equidistant from one another). At the end of the 15 min exploration period mice were carefully removed from the testing cages and the number of marbles buried was recorded. The marble burying index was arbitrarily defined as the following: 1 for marbles covered >50% with bedding, 0.5 for marbles covered <50% with bedding, or 0 for anything less.

S1DZ neurons = assay: In vivo electrophysiology, firing rate of S1DZ neurons in awake mice; design: species or system mouse
Method: Electrophysiological experiments were conducted in head-fixed mice trained to walk on a rotating running wheel. Prior to training, mice were implanted with custom crowns permitting head-fixing above the wheel and allowed to recover for one week before training. Mice were trained to walk on the wheel for three 10 min sessions daily for at least one week. Following training, mice were implanted with a multi-electrode array targeting the S1DZ and allowed to recover before testing. To assess IL-17a dependence of LPS-induced changes in neural activity, mice were injected i.p. with control antibodies or blocking antibody against IL-17a (1 mg/mouse), 30 min prior to i.p. vehicle or LPS injection. Baseline neural activity was measured while mice were running on the wheel immediately prior to the first injection. Following the first injection, mice were returned to their home cage. Post-injection (Test) neural activity during wheel running was measured 4 hrs after vehicle or LPS injection.
Custom multi-electrode array scaffolds (drive bodies) were designed using 3D CAD software (SolidWorks®) and printed in Accura 55 Plastic™ (American Precision Prototyping®) as described previously^31,32. […]
Firing rate was calculated across one second time windows during which animals were walking stably on the rotating wheel averaged across 25-50 trials per condition. […]

lipopolysaccharide [LPS]
sociability deficits (MIA offspring [1]; IFNγ or IL-17a knockout (KO) MIA offspring, LPS i.p., 4 hours): failed to rescue the sociability deficits in IFNγ or IL-17a knockout (KO) MIA offspring | LPS-induced rescue of sociability by age (MIA offspring [1]; MIA mice, young (2-5 months) and aged (9-12 month), 4 hr after LPS): observed in both young (2-5 months) and aged (9-12 month) mice; also recorded: effective in aged mice | sociability (deficit in sociability) (MIA offspring [1]; MIA offspring (WT), LPS 50 μg/kg i.p., 4 hours after injection): temporarily rescued; also recorded: robustly rescued their characteristic deficits in sociability; also recorded: restored sociability; also recorded: rescues sociability deficits in MIA offspring | sociability (MIA offspring [1]; MIA offspring deficient for IL-17Ra in the S1DZ (IL-17Ra fl/fl; EGFP:nCre), LPS i.p., 4 hours): failed to restore sociability | sociability rescue 72 hours following LPS (MIA offspring [1]; MIA offspring, 72 hours after LPS treatment): behavioral rescue was absent 72 hours following LPS treatment; also recorded: absent 72 hours following the treatment; also recorded: transient | baseline sociability (MIA offspring [1]; PBS (control) offspring, LPS i.p., 4 hours after injection): Neither vehicle nor LPS injection affected baseline sociability in PBS offspring; also recorded: did not affect baseline sociability in control offspring | sociability in MIA Vgat-Cre mice (MIA offspring [1]; Vgat-Cre MIA offspring without surgery, CNO 1.5 mg/kg i.p. or LPS): showed an increase in sociability upon LPS treatment | spiking in response to depolarizing current injections [2]: reduced spiking in response to depolarizing current injections | marble burying behavior (MIA offspring [3]): rescued an enhanced marble burying behavior | overall firing rate of S1DZ neurons (S1DZ neurons; MIA offspring, 4 hrs after LPS): a decrease in overall firing rate was observed | firing rate in the S1DZ (S1DZ neurons; control (PBS) offspring): Neither LPS nor IL-17a blocking antibody treatment changed the firing rate
